The results in this text go back to US10689377B2 (Mirati Therapeutics, Inc., priority 2017, dated 2020).

For assay [1], the target named is KRas G12C (Homo sapiens, UniProt P01116, G12C). The assay can be described thus: Cellular inhibition of KRas G12C measured by Phospho-ERK in NCI-H358 cells. The assay is classed as cell-based. The conditions noted are these: pERK(Thr202/Tyr204) normalized with GAPDH, NCI-H358 cells, 3 hours. In outline: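 Readout is pERK(Thr202/Tyr204) immunofluorescence normalized to GAPDH, expressed as percent of DMSO control and fitted with a 4-parameter curve for IC50. Attached NCI-H358 cells received compound for 3 hours in 0.5% DMSO, followed by fixation and methanol permeabilization.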

Assay [2] addresses KRas G12C (Homo sapiens, UniProt P01116, C118S/C51S/C80L/G12C). As to the kind of experiment: KRas G12C Modification Assay (LCMS detection of covalent adduct). The assay is classed as binding. In outline: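 Intact protein analysed by LC/MS with deconvolution; unmodified protein signal normalized to no-compound control and reported as percent of control (POC).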
[3] abbreviates: normalized percent of control, 5 μM concentration for 3 hours.

Read-outs that look alike come from different tables or passages of the source. A value given as a limit tells only on which side of the number the result lay.

A word on the IC50: it is the concentration that inhibits the measured activity by half.

With `C=CC(=O)N1CCN(c2nc(OC[C@]3(C)CCCN3C)nc3c2CCN(c2cccc4ccccc24)C3)CC1CC#N` (stereo partly drawn) [Example 251, 2-(1-acryloyl-4-(2-(((S)-1,2-dimethylpyrrolidin-2-yl)methoxy)-7-(naphthalen-1-yl)-5,6,7,8-tetrahydropyrido[3,4-d]pyrimidin-4-yl)piperazin-2-yl)acetonitrile], the IC50 against KRas G12C [1] is 0.1 to 1000 nM. Moreover, the POC entry at KRas G12C [2] (setting [3]) is “C (“C”>50% POC)”.

As to `Cc1cccc2cccc(N3CCc4c(nc(OC[C@H]5CCCN5C)nc4N4CCN(C(=O)/C=C/CF)[C@@H](CC#N)C4)C3)c12` [Example 563, 2-[(2S)-1-[(E)-4-Fluorobut-2-enoyl]-4-[7-(8-methyl-1-naphthyl)-2-[[(2R)-1-methylpyrrolidin-2-yl]methoxy]-6,8-dihydro-5H-pyrido[3,4-d]pyrimidin-4-yl]piperazin-2-yl]acetonitrile], at KRas G12C [1] (read-out: IC50), the IC50 fell in the range of 0.1 to 1000 nM. In addition, the POC result on KRas G12C [2] (setting [3]) is reported as “C (“C”>50% POC)”.

As to `C=CC(=O)N1CCN(c2nc(OCCCN3CCOCC3)nc3c2CCN(c2cc(O)cc4sc(C)nc24)C3)CC1` [Example 166, 1-[4-[7-(6-hydroxy-2-methyl-1,3-benzothiazol-4-yl)-2-(3-morpholinopropoxy)-6,8-dihydro-5H-pyrido[3,4-d]pyrimidin-4-yl]piperazin-1-yl]prop-2-en-1-one], on KRas G12C [1] (read-out: IC50), the 50% inhibitory concentration (IC50) was greater than 1000 nM. Besides, the POC result at KRas G12C [2] (5 µM) was “B (key: “A”≤25% POC; “B”>25% POC-≤50% POC; “C”>50% POC)”.

`C=C(F)C(=O)N1CCN(c2nc(OC[C@@H]3CCCN3Cc3ccccc3)nc3c2CCN(c2cccc4cccc(C)c24)C3)C[C@@H]1CC#N` [Example 596, 2-((S)-4-(2-(((S)-1-Benzylpyrrolidin-2-yl)methoxy)-7-(8-methylnaphthalen-1-yl)-5,6,7,8-tetrahydropyrido[3,4-d]pyrimidin-4-yl)-1-(2-fluoroacryloyl)piperazin-2-yl)acetonitrile]: the IC50 at KRas G12C [1] (read-out: IC50) was 0.1 to 1000 nM. Also, the POC entry on KRas G12C [2] (setting [3]) is reported as “C (“C”>50% POC)”.

`C=C(F)C(=O)N1CCN(c2nc(OC[C@@H]3CCCN3C)nc3c2CCN(c2cccc4cccc(C5CC5)c24)C3)C[C@@H]1CC#N` [Example 590, 2-((S)-4-(7-(8-Cyclopropylnaphthalen-1-yl)-2-(((S)-1-methylpyrrolidin-2-yl)methoxy)-5,6,7,8-tetrahydropyrido[3,4-d]pyrimidin-4-yl)-1-(2-fluoroacryloyl)piperazin-2-yl)acetonitrile]: on KRas G12C [1] (read-out: IC50), the 50% inhibitory concentration (IC50) was greater than 1000 nM. Moreover, the POC entry at KRas G12C [2] (setting [3]) is on record as “B (“B”>25% POC-≤50% POC)”.

`C=C(F)C(=O)N1CCN(c2nc(OC[C@@H]3CCCN3C)nc3c2CCN(c2cccc4ccnc(C)c24)C3)C[C@@H]1CC#N` [Example 592]: the 50% inhibitory concentration (IC50) on KRas G12C [1] (read-out: IC50) is greater than 1000 nM. In addition, at KRas G12C [2] (setting [3]), the POC result was “C (“C”>50% POC)”.

Turning to `C=CC(=O)N1CCN(c2nc(OC[C@@H]3CCCN3C)nc3c2CCN(c2cccc4c2OCC4)C3)C[C@@H]1CC#N` [Example 435, 2-((S)-1-acryloyl-4-(7-(2,3-dihydrobenzofuran-7-yl)-2-(((S)-1-methylpyrrolidin-2-yl)methoxy)-5,6,7,8-tetrahydropyrido[3,4-d]pyrimidin-4-yl)piperazin-2-yl)acetonitrile], the IC50 on KRas G12C [1] (read-out: IC50) was 0.1 to 1000 nM. In addition, the POC entry at KRas G12C [2] (setting [3]) is “C (“C”>50% POC)”.

For the compound `C=CC(=O)N1CCN(c2nc(OC[C@@H]3CCCN3C)nc3c2CCN(c2c(C)c(C)cc4[nH]c(=O)[nH]c24)C3)CC1` [Example 456, 5,6-dimethyl-4-[2-[[(2S)-1-methylpyrrolidin-2-yl]methoxy]-4-(4-prop-2-enoylpiperazin-1-yl)-6,8-dihydro-5H-pyrido[3,4-d]pyrimidin-7-yl]-1,3-dihydrobenzimidazol-2-one], the IC50 on KRas G12C [1] (read-out: IC50) is greater than 1000 nM. Further, the POC entry on KRas G12C [2] (setting [3]) is recorded as “C (“C”>50% POC)”.

For the compound `C=CC(=O)N1CCN(c2nc(OCCCN3CC4CC4C3)nc3c2CCN(c2cc(O)cc4ccccc24)C3)CC1` (stereo not drawn) [Example 206, 1-(4-(2-(3-(3-azabicyclo[3.1.0]hexan-3-yl)propoxy)-7-(3-hydroxynaphthalen-1-yl)-5,6,7,8-tetrahydropyrido[3,4-d]pyrimidin-4-yl)piperazin-1-yl)prop-2-en-1-one], at KRas G12C [1] (read-out: IC50), the concentration for half-maximal inhibition (IC50) was 0.1 to 1000 nM. Moreover, the POC result on KRas G12C [2] (setting [3]) was “C (“C”>50% POC)”.

Take `C=CC(=O)N1CCN(c2nc(OC[C@@H]3CCCN3C)nc3c2CCN(c2cccc4ccc(C)cc24)C3)CC1CC#N` (stereo partly drawn) [Example 245, 2-[4-[7-(7-methyl-1-naphthyl)-2-[[(2S)-1-methylpyrrolidin-2-yl]methoxy]-6,8-dihydro-5H-pyrido[3,4-d]pyrimidin-4-yl]-1-prop-2-enoyl-piperazin-2-yl]acetonitrile]: the IC50 on KRas G12C [1] (read-out: IC50) was 0.1 to 1000 nM. The POC entry at KRas G12C [2] (setting [3]) is on record as “C (“C”>50% POC)”.

On to `C=C(F)C(=O)N1CCN(c2nc(OC[C@@H]3C[C@@H](OC)CN3C)nc3c2CCN(c2cccc4cccc(Cl)c24)C3)C[C@@H]1CC#N` [Example 577, 2-[(2S)-4-[7-(8-Chloro-1-naphthyl)-2-[[(2S,4R)-4-methoxy-1-methyl-pyrrolidin-2-yl]methoxy]-6,8-dihydro-5H-pyrido[3,4-d]pyrimidin-4-yl]-1-(2-fluoroprop-2-enoyl)piperazin-2-yl] acetonitrile], for which, at KRas G12C [1] (read-out: IC50), the IC50 fell in the range of 0.1 to 1000 nM. Also, on KRas G12C [2] (setting [3]), the POC result was “C (“C”>50% POC)”.

In the case of `C=CC(=O)N1CCN(c2nc(OC[C@@H]3CCCN3C)nc3c2CCN(c2cccc4ccccc24)C3)C[C@@H]1CC#N` [Example 234, 2-((S)-1-acryloyl-4-(2-(((S)-1-methylpyrrolidin-2-yl)methoxy)-7-(naphthalen-1-yl)-5,6,7,8-tetrahydropyrido[3,4-d]pyrimidin-4-yl)piperazin-2-yl)acetonitrile], at KRas G12C [1] (read-out: IC50), the IC50 was in the range of 0.1 to 1000 nM. For the same compound, the POC entry at KRas G12C [2] (setting [3]) was “C (“C”>50% POC)”.

As to `C=C(F)C(=O)N1CCN(c2nc(OCCCN3C[C@@H]4C[C@H]3CO4)nc3c2CCN(c2cccc4cccc(Cl)c24)C3)C[C@@H]1CC#N` [Example 564, 2-[(2S)-4-[7-(8-Chloro-1-naphthyl)-2-[3-[(1S,4S)-2-oxa-5-azabicyclo[2.2.1]heptan-5-yl]propoxy]-6,8-dihydro-5H-pyrido[3,4-d]pyrimidin-4-yl]-1-(2-fluoroprop-2-enoyl)piperazin-2-yl]acetonitrile], on KRas G12C [1] (read-out: IC50), the IC50 was 0.1 to 1000 nM. The POC entry on KRas G12C [2] (setting [3]) is given as “C (“C”>50% POC)”.

For `C=C(F)C(=O)N1CCN(c2nc(OC[C@@H]3C[C@@H](F)CN3C)nc3c2CCN(c2cccc4cccc(Cl)c24)C3)C[C@@H]1CC#N` [Example 574, 2-[(2S)-4-[7-(8-Chloro-1-naphthyl)-2-[[(2S,4R)-4-fluoro-1-methyl-pyrrolidin-2-yl]methoxy]-6,8-dihydro-5H-pyrido[3,4-d]pyrimidin-4-yl]-1-(2-fluoroprop-2-enoyl)piperazin-2-yl] acetonitrile], on KRas G12C [1] (read-out: IC50), the half-inhibitory concentration (IC50) is 0.1 to 1000 nM. In addition, on KRas G12C [2] (setting [3]), the POC result is on record as “C (“C”>50% POC)”.

In the case of `C=CC(=O)N1CCN(c2nc(OC[C@@H]3C[C@@H](F)CN3C)nc3c2CCN(c2cccc4ccccc24)C3)CC1CC#N` (stereo partly drawn) [Example 220, 2-(1-acryloyl-4-(2-(((2S,4R)-4-fluoro-1-methylpyrrolidin-2-yl)methoxy)-7-(naphthalen-1-yl)-5,6,7,8-tetrahydropyrido[3,4-d]pyrimidin-4-yl)piperazin-2-yl)acetonitrile], on KRas G12C [1] (read-out: IC50), the IC50 fell in the range of 0.1 to 1000 nM. Also, the POC entry on KRas G12C [2] (setting [3]) is on record as “C (“C”>50% POC)”.
